This note sets out measurements from ChEMBL document CHEMBL1149739, “Sarcochromenol sulfates A-C and sarcohydroquinone sulfates A-C, new natural products from the sponge Sarcotragus spinulosus” (J Nat Prod, 1992).

The test is described as follows: Inhibition of rat brain Na(+)/K(+) ATPase.

SMILES strings stand for the structures. Where a name gives a salt, the structure may show the parent alone.

In general, IC50 refers to the concentration at which inhibition is half-maximal. Read a low IC50 as higher potency. As for `CC(C)=CCC/C(C)=C/CC/C(C)=C/CC/C(C)=C/CC/C(C)=C/CC/C(C)=C/CC/C(C)=C/Cc1cc(OS(=O)(=O)O)ccc1OS(=O)(=O)O` [DISODIUM SARCOHYDROQUINONE SULFATE B], half-maximal inhibition (IC50) was put at 1.4 µM. For `CC(C)=CCC/C(C)=C/CC/C(C)=C/CC/C(C)=C/CC/C(C)=C/CCC1(C)C=Cc2cc(OS(=O)(=O)O)ccc2O1` (configuration not stated) [SODIUM SARCOCHROMENOL SULFATE A] the value was 1.6 µM.
